# From patent US20220062340A1, “IMMUNOTHERAPEUTIC METHODS AND COMPOSITIONS” (KING'S COLLEGE LONDON, priority 2018, published 2022)
# Columns and labels:
# Ex vivo expanded Tregs = assay: IL-17 and IFNγ production under pro-inflammatory cytokine challenge (ELISA); assay type: cell-based, human; settings: Tregs expanded ex vivo in the presence of the agonist, FIG. 2f
# Experimental: Cytokine concentrations were measured using the Ready-SET-Go sandwich ELISA kits from eBioscience.
# Ex vivo expanded Tregs were activated with CD3/CD28 beads at a 1:20 ratio and cultured at 10^6cells/m1 in X-VIVO for 5 days at 37° C./5% CO2, supplemented with the following cytokine cocktail: A) IL-2 (10 IU/mL, Proleukin); (B) IL-2, IL-1 (10 ng/mL), IL-6 (4 ng/mL) and transforming growth factor-β (TGF-β (5 ng/mL), IL-21 (25 ng/mL), IL-23 (25 ng/mL) (all R&D Systems). Supernatant IL-17 and interferon gamma (IFNγ) concentrations were measured by ELISA.
# Tregs from CD patients = assay: Gene array of expanded Tregs from CD patients; assay type: cell-based, human; settings: compared to rapamycin only, n=3
# Experimental: Gene array analyses were carried out using Partek® software with a 1-way ANOVA to assess for differential gene expression.
# 1) RNA extraction was performed using Qiagen RNEasy mini/micro kits as per manufacturer's instructions. The samples were checked for RNA quality using the Agilent 2100 Bioanalyzer and quantified using the Nanodrop (ND-1000 Spectrophotometer). Samples which passed QC (RIN>8) were chosen such that input amount of each sample was 3 ng.
# 2) SPIA cDNA was generated using the “Ovation Pico WTA System V2” kit from Nugen, following the manufacturer's instructions.
# 3) The SPIA cDNA was subjected to a QC check to assess quality (Agilent 2100 Bioanalyzer) and quantity (Nanodrop ND-1000 Spectrophotometer) for the next stage.
# 4) The SPIA cDNA was fragmented and Biotin-labelled using the “Encore Biotin Module” from Nugen according to the manufacturer's instructions and passed through QC checks to assess fragmentation size (Agilent 2100 Bioanalyzer).
# 6) Hybridization cocktails were prepared of the fragmented labelled-cDNA according to Nugen's recommendations and hybridized at 45° C. overnight in an oven.
# 7) The arrays were washed and stained using wash protocol FS450_0002 (Affymetrix protocol recommended for Human Gene 2.0 Arrays on the GeneChip Fluidics station 450.
# 8) The arrays were scanned using the Affymetrix GeneChip Scanner.
# Gene expression analyses were performed on Tregs from CD patients expanded in the presence of Rapa+ATRA, Rapa+RAR568 or rapamycin only (n=3 in each group). […] CD161 has previously been described as a marker of T helper (Th) 17-like Tregs^32. This was not observed in the RAR568-treated group. […] IL-18 Receptor 1 and STAT4 are responsible for Th1 lineage commitment and IFNγ production, both have been independently identified as IBD disease related polymorphisms on GWAS^33-36. CD38 has been identified as a marker associated with mature T cells, signaling reduced proliferation, but an increased ability to produce pro-inflammatory cytokines such as IFNγ^37. Ligation of GPR174 negatively affects Treg accumulation and function^38. No clear difference in transcripts for canonical pathways were identified when ATRA treated cells were compared with RAR568 treated cells.
# To assess for off target RARγ effects, we compared the gene expression profiles of RAR568 and ATRA treated cells to a published dataset of RARγ target genes^39. […] Given the efficacy at inducing α4β7 and lack of off target effects, RAR568 fulfilled the target product profile for an agent that could be used for ex vivo Treg expansion for cell-based therapy purposes. Therefore, we probed this effect of RAR568 on Tregs from CD patients in functional in vitro and in vivo trafficking assays.
# [1] = system: integrin α4β7 on Treg surface; assay: Induction of integrin α4β7 on bulk Treg surface by RARα agonists (FIG. 6); assay type: cell-based; settings: bulk CD4+CD25+CD127− Tregs, 12 days stimulation, reducing agonist concentrations
# Experimental: Bulk Tregs (CD4+CD25+CD127−) Tregs (50,000 per well) were expanded in vitro with reducing concentrations of the agonists. Culture conditions: 2 aCD3/aCD28 beads/cell, 1000IU/mL IL-2, 0.1 nM Rapamycin+Agonist in X-vivo 15. Following 12 days stimulation, cells were stained for CD4, CD25, CD127, FOXP3, Integrin a4, Integrin b7, CD15s, CD161 and acquired on a BD symphony flow cytometer. Data was analysed in Flowjo and Prism.
smiles,measurement,setting,value
CCOc1c(Cl)cc(C(=O)Nc2ccc(C(=O)O)c(C)c2)cc1OC(C)C [RAR568],IFNγ production following pro-inflammatory cytokine challenge,Ex vivo expanded Tregs,did not produce
same,IL-17 production following pro-inflammatory cytokine challenge,Ex vivo expanded Tregs,did not produce
same,transcripts for CD161,Tregs from CD patients,not observed
same,induction of integrin α4β7 on Treg surface,[1],comparable effects
